In patent US8952024B2, “Herbicidal pyrimidone derivatives” (E I du Pont de Nemours and Company, priority 2009, dated 2015):

Key:
Format in all cases: in vivo
[1] = system: ducksalad (Heteranthera limosa); assay: Test B flooded paddy test; details: for Plant response rating, Flood, Ducksalad: 250 g ai/ha, flooded paddy test, visual rating on 0 to 100 scale (0 no effect, 100 complete control) after 13 to 15 days; for Plant response rating, Ducksalad: Flood (flooded paddy test), 13 to 15 days; for Ducksalad plant response rating: Flood, 31 g ai/ha, scale 0 to 100 (0 no effect, 100 complete control)
In short: (§1)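 Plants were grown to the 2-leaf stage, then pots were flooded to 3 cm above the soil and compounds were applied directly into the paddy water. That depth was held throughout. After 13 to 15 days in a greenhouse, injury was visually rated against controls on a 0–100 scale.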

[2] = system: barnyardgrass (Echinochloa crus-galli); assay: Test B flooded paddy test; details: for Plant response rating, Flood, Barnyardgrass: 250 g ai/ha, flooded paddy test, visual rating on 0 to 100 scale (0 no effect, 100 complete control) after 13 to 15 days; for Plant response rating, Barnyardgrass: Flood (flooded paddy test), 13 to 15 days; for Barnyardgrass plant response rating: Flood, 31 g ai/ha, scale 0 to 100 (0 no effect, 100 complete control)
In short: as §1

rice (Oryza sativa) = assay: Test B flooded paddy test; details: for Plant response rating, Flood, Rice: 250 g ai/ha, flooded paddy test, visual rating on 0 to 100 scale (0 no effect, 100 complete control) after 13 to 15 days; for Plant response rating, Rice: Flood (flooded paddy test), 13 to 15 days; for Rice plant response rating: Flood, 31 g ai/ha, scale 0 to 100 (0 no effect, 100 complete control)
In short: as §1

[3] = system: umbrella sedge (Cyperus difformis); assay: Test B flooded paddy test; details: for Plant response rating, Flood, Sedge, Umbrella: 250 g ai/ha, flooded paddy test, visual rating on 0 to 100 scale (0 no effect, 100 complete control) after 13 to 15 days; for Plant response rating, Sedge, Umbrella: Flood (flooded paddy test), 13 to 15 days; for Sedge, Umbrella plant response rating: Flood, 31 g ai/ha, scale 0 to 100 (0 no effect, 100 complete control)
In short: as §1

[4] = system: morningglory (Ipomoea spp.); assay: Test A pre-/postemergence plant response
From the text: (§2) Seeds of barnyardgrass (Echinochloa crus-galli), large crabgrass (Digitaria sanguinalis), giant foxtail (Setaria faberii), morningglory (Ipomoea spp.), pigweed (Amaranthus retroflexus), velvetleaf (Abutilon theophrasti), wheat (Triticum aestivum) and corn (Zea mays) were planted into a blend of loam soil and sand and treated preemergence with a directed soil spray using test chemicals formulated in a non-phytotoxic solvent mixture which included a surfactant. At the same time these species were also treated with postemergence applications of test compounds formulated in the same manner.
(§3) Plants ranged in height from two to ten cm and were in the one- to two-leaf stage for the postemergence treatment. Treated plants and untreated controls were maintained in a greenhouse for approximately ten days, after which time all treated plants were compared to untreated controls and visually evaluated for injury. Plant response ratings, summarized in Table A, are based on a 0 to 100 scale where 0 is no effect and 100 is complete control. A dash (-) response means no test result.

[5] = system: wheat (Triticum aestivum); assay: Test A pre-/postemergence plant response
From the text: as §2, §3

[6] = system: velvetleaf (Abutilon theophrasti); assay: Test A pre-/postemergence plant response
From the text: as §2, §3

[7] = system: pigweed (Amaranthus retroflexus); assay: Test A pre-/postemergence plant response
From the text: as §2, §3

[8] = system: barnyardgrass (Echinochloa crus-galli); assay: Test A pre-/postemergence plant response
From the text: as §2, §3

corn (Zea mays) = assay: Test A pre-/postemergence plant response
From the text: as §2, §3

[9] = system: large crabgrass (Digitaria sanguinalis); assay: Test A pre-/postemergence plant response
From the text: as §2, §3

[10] = system: giant foxtail (Setaria faberii); assay: Test A pre-/postemergence plant response
From the text: as §2, §3

[11] = 62 g ai/ha, scale of 0 to 100 where 0 is no effect and 100 is complete control
[12] = 125 g ai/ha, scale 0 to 100, 0 is no effect, 100 is complete control
[13] = Postemergence, 125 g ai/ha, 0 to 100 scale where 0 is no effect and 100 is complete control
[14] = Postemergence, 500 g ai/ha, 0 to 100 scale, 0 = no effect, 100 = complete control, approx. ten days
[15] = Preemergence, 125 g ai/ha, 0 to 100 scale, 0 = no effect, 100 = complete control
[16] = Preemergence, 500 g ai/ha, visual injury, 0 to 100 scale (0 no effect, 100 complete control), approx. ten days

With `O=C1CCCC(O)=C1C(=O)c1cnc(C2CCCCC2)n(-c2ccccc2)c1=O` [Compound 106] the “Plant response rating, Flood, Ducksalad” value [1] was 0, the “Plant response rating, Ducksalad” value [1, 11] was 0 and the “Plant response rating, Ducksalad” value [1, 12] was 0. For the same compound, the “Ducksalad plant response rating” value [1] was 0, the “Plant response rating, Flood, Barnyardgrass” value [2] was 15 and the “Plant response rating, Barnyardgrass” value [2, 11] was 0. The “Plant response rating, Barnyardgrass” value [2, 12] was 0, the “Barnyardgrass plant response rating” value [2] was 0 and the “Plant response rating, Flood, Rice” value (rice (Oryza sativa)) was 20. For the same compound, the “Plant response rating, Rice” value (rice (Oryza sativa); [11]) was 0, the “Plant response rating, Rice” value (rice (Oryza sativa); [12]) was 20 and the “Rice plant response rating” value (rice (Oryza sativa)) was 0. For the same compound, the “Plant response rating, Flood, Sedge, Umbrella” value [3] was 0, the “Plant response rating, Sedge, Umbrella” value [3, 11] was 0 and the “Plant response rating, Sedge, Umbrella” value [3, 12] was 0. For the same compound, the “Sedge, Umbrella plant response rating” value [3] was 0, the “Plant response rating, Morningglory” value [4, 13] was 100 and the “Plant response rating, Morningglory” value [4, 14] was 100. The “Plant response rating, Morningglory” value [4, 15] was 50, the “Plant response rating, Morningglory” value [4, 16] was 80 and the “Plant response rating, Wheat” value [5, 13] was 0. For the same compound, the “Plant response rating, Wheat” value [5, 14] was 0, the “Plant response rating, Wheat” value [5, 15] was 0 and the “Plant response rating, Wheat” value [5, 16] was 0. For the same compound, the “Plant response rating, Velvetleaf” value [6, 13] was 100, the “Plant response rating, Velvetleaf” value [6, 14] was 100 and the “Plant response rating, Velvetleaf” value [6, 15] was 40. The “Plant response rating, Velvetleaf” value [6, 16] was 60, the “Plant response rating, Pigweed” value [7, 13] was 80 and the “Plant response rating, Pigweed” value [7, 14] was 100. The “Plant response rating, Pigweed” value [7, 15] was 80, the “Plant response rating, Pigweed” value [7, 16] was 90 and the “Plant response rating, Barnyardgrass” value [8, 13] was 10. The “Plant response rating, Barnyardgrass” value [8, 14] was 50, the “Plant response rating, Barnyardgrass” value [8, 15] was 10 and the “Plant response rating, Barnyardgrass” value [8, 16] was 50. The “Plant response rating, Corn” value (corn (Zea mays); [13]) was 0, the “Plant response rating, Corn” value (corn (Zea mays); [14]) was 10 and the “Plant response rating, Corn” value (corn (Zea mays); [15]) was 0. The “Plant response rating, Corn” value (corn (Zea mays); [16]) was 0, the “Plant response rating, Crabgrass, Large” value [9, 13] was 40 and the “Plant response rating, Crabgrass, Large” value [9, 14] was 70. The “Plant response rating, Crabgrass, Large” value [9, 15] was 70, the “Plant response rating, Crabgrass, Large” value [9, 16] was 80 and the “Plant response rating, Foxtail, Giant” value [10, 13] was 20. The “Plant response rating, Foxtail, Giant” value [10, 14] was 60, the “Plant response rating, Foxtail, Giant” value [10, 15] was 40 and the “Plant response rating, Foxtail, Giant” value [10, 16] was 70.
For `CCCn1c(-c2ccco2)ncc(C(=O)C2=C(O)CCCC2=O)c1=O` [Compound 110], the “Plant response rating, Flood, Ducksalad” value [1] was 75, the “Plant response rating, Ducksalad” value [1, 11] was 40 and the “Plant response rating, Ducksalad” value [1, 12] was 75. For the same compound, the “Ducksalad plant response rating” value [1] was 0, the “Plant response rating, Flood, Barnyardgrass” value [2] was 40 and the “Plant response rating, Barnyardgrass” value [2, 11] was 0. The “Plant response rating, Barnyardgrass” value [2, 12] was 20, the “Barnyardgrass plant response rating” value [2] was 0 and the “Plant response rating, Flood, Rice” value (rice (Oryza sativa)) was 30. The “Plant response rating, Rice” value (rice (Oryza sativa); [11]) was 0, the “Plant response rating, Rice” value (rice (Oryza sativa); [12]) was 30 and the “Rice plant response rating” value (rice (Oryza sativa)) was 0. For the same compound, the “Plant response rating, Flood, Sedge, Umbrella” value [3] was 75, the “Plant response rating, Sedge, Umbrella” value [3, 11] was 35 and the “Plant response rating, Sedge, Umbrella” value [3, 12] was 50. For the same compound, the “Sedge, Umbrella plant response rating” value [3] was 30, the “Plant response rating, Morningglory” value [4, 13] was 90 and the “Plant response rating, Morningglory” value [4, 14] was 100. The “Plant response rating, Morningglory” value [4, 15] was 40, the “Plant response rating, Morningglory” value [4, 16] was 70 and the “Plant response rating, Wheat” value [5, 13] was 0. For the same compound, the “Plant response rating, Wheat” value [5, 14] was 0, the “Plant response rating, Wheat” value [5, 15] was 0 and the “Plant response rating, Wheat” value [5, 16] was 0. The “Plant response rating, Velvetleaf” value [6, 13] was 90, the “Plant response rating, Velvetleaf” value [6, 14] was 100 and the “Plant response rating, Velvetleaf” value [6, 15] was 60. For the same compound, the “Plant response rating, Velvetleaf” value [6, 16] was 70, the “Plant response rating, Pigweed” value [7, 13] was 90 and the “Plant response rating, Pigweed” value [7, 14] was 100. The “Plant response rating, Pigweed” value [7, 15] was 80, the “Plant response rating, Pigweed” value [7, 16] was 90 and the “Plant response rating, Barnyardgrass” value [8, 13] was 60. The “Plant response rating, Barnyardgrass” value [8, 14] was 90, the “Plant response rating, Barnyardgrass” value [8, 15] was 20 and the “Plant response rating, Barnyardgrass” value [8, 16] was 60. The “Plant response rating, Corn” value (corn (Zea mays); [13]) was 0, the “Plant response rating, Corn” value (corn (Zea mays); [14]) was 10 and the “Plant response rating, Corn” value (corn (Zea mays); [15]) was 0. For the same compound, the “Plant response rating, Corn” value (corn (Zea mays); [16]) was 0, the “Plant response rating, Crabgrass, Large” value [9, 13] was 80 and the “Plant response rating, Crabgrass, Large” value [9, 14] was 90. The “Plant response rating, Crabgrass, Large” value [9, 15] was 40, the “Plant response rating, Crabgrass, Large” value [9, 16] was 80 and the “Plant response rating, Foxtail, Giant” value [10, 13] was 10. For the same compound, the “Plant response rating, Foxtail, Giant” value [10, 14] was 50, the “Plant response rating, Foxtail, Giant” value [10, 15] was 0 and the “Plant response rating, Foxtail, Giant” value [10, 16] was 10.
